Measurements reported in EP4768484A1, “HETEROCYCLIC FUSED RING COMPOUND, AND COMPOSITION AND USE THEREOF” (Shenzhen TargetRx, Inc., priority 2023, dated 2025).

Columns and labels:
Format in all cases: cell-based
[1] = system: K562 cells; assay: Cell growth inhibitory activity assay (CellTiter-Glo), K562 cells; settings: Homo sapiens, 72 h, CTG cell viability
How it was run: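 Growth inhibition of human K562 cells, sourced from Nanjing Kebai (CBP60529), was assessed with Promega's CellTiter-Glo kit, which measures viability through ATP quantification. Log-phase cells went into the inner wells of 96-well plates, with PBS in edge wells, incubated overnight at 37 °C and 5% CO2, then exposed to serially diluted compound for 72 h.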

[2] = molecular target: T1, Ba/F3 BCR-ABL1 WT (Homo sapiens, UniProt P00519+P11274); assay: Cell growth inhibitory activity assay (CellTiter-Glo), Ba/F3 BCR-ABL1 WT cells; settings: 72 h, CTG cell viability
T1 construct: BCR (N-terminal fusion partner of the oncoprotein); expressed in transfected cells; host or cells: Ba/F3 (lentiviral transduction, monoclonal line)
How it was run: (§1)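 Ba/F3 parental cells or Ba/F3 lines lentivirally transduced with WT or mutant BCR-ABL1, seeded overnight then exposed to serially diluted compound 72 h at 37 °C, 5% CO2. Viability by CellTiter-Glo ATP luminescence with a T0 plate; 0.5% DMSO controls; IC50 from four-parameter nonlinear fit.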

[3] = molecular target: T2, Ba/F3 BCR-ABL1 T315I (Homo sapiens, UniProt P00519+P11274, T315I); assay: Cell growth inhibitory activity assay (CellTiter-Glo), Ba/F3 BCR-ABL1 T315I cells; settings: 72 h, CTG cell viability
T2 construct: BCR (N-terminal fusion partner of the oncoprotein); expressed in transfected cells; host or cells: Ba/F3 (lentiviral transduction, monoclonal line)
How it was run: as §1

[4] = molecular target: T3, Ba/F3 BCR-ABL1 T315M (Homo sapiens, UniProt P00519+P11274, T315M); assay: Cell growth inhibitory activity assay (CellTiter-Glo), Ba/F3 BCR-ABL1 T315M cells; settings: 72 h, CTG cell viability
T3 construct: BCR (N-terminal fusion partner of the oncoprotein); expressed in transfected cells; host or cells: Ba/F3 (lentiviral transduction, monoclonal line)
How it was run: as §1

[5] = system: Ba/F3 parental cells; assay: Cell growth inhibitory activity assay (CellTiter-Glo), Ba/F3 parental cells; settings: Mus musculus, BaF3, 72 h, CTG cell viability, read-out: IC50 Ba/F3 BCR-ABL1 Parental
How it was run: as §1

[6] = molecular target: T4, Ba/F3 BCR-ABL1 Y253H/E255K (Homo sapiens, UniProt P00519+P11274, E255K/Y253H); assay: Cell growth inhibitory activity assay (CellTiter-Glo), Ba/F3 BCR-ABL1 Y253H/E255K cells; settings: 72 h, CTG cell viability
T4 construct: BCR (N-terminal fusion partner of the oncoprotein); expressed in transfected cells; host or cells: Ba/F3 (lentiviral transduction, monoclonal line)
Description: (§2) In this assay, the Celltiter-Glo (CTG) kit provided by Promega was used, and it is a homogeneous cell viability assay method. The cell viability of cultured cells was measured by quantifying ATP. K562 cells were purchased from Nanjing Kebai, product number CBP60529; Ba/F3 parental cells were purchased from RIKEN BRC, product number RCB0805; other cells containing BCR-ABL1 WT, BCR-ABL1 T315I, BCR-ABL1 T315M, BCR-ABL1 Y253H/E255K, BCR-ABL1 E255V/T3151, BCR-ABL1 A424T, BCR-ABL1 A337V, BCR-ABL1 P465S, BCR-ABL1 V468F, and BCR-ABL1 I502L were all monoclonal engineered cell lines obtained by transducting Ba/F3 parental cells with the lentivirus plasmids containing WT or corresponding mutated BCR-ABL1.
(§3) The steps of cell viability assay are as follows: • a) Cells in logarithmic growth phase were collected. Cell suspension was prepared and the cells were counted. Concentration of the cells was calculated. • b) The cell suspension was diluted to the required concentration and then added to the middle wells of a 96-well plate, and PBS was added to the edge wells. The wells with no cells and only culture medium were used as blank controls. • c) In addition to the cell plate used for compound analysis, another 96-well plate was prepared as a T0 plate, and 3-6 blank wells and 3-6 cell wells were added. The next day, CTG was used to test the cell viability as the T0 viability value of the cells. • d) The cell plate was incubated at 37 °C in a 5% CO2 incubator overnight. • e) The next day, each concentration of a compound subjected to a gradient dilution was added, and the cell plate was incubated at 37 °C in a 5% CO2 incubator for 72 h. The wells with no compound and only 0.5% DMSO were used as positive controls for cell growth. • f) CTG reagent (CellTiter-Glo kit) was added according to the manufacturer's instructions to test the cell viability value. • g) The plate was read using Biotek cytation3.0 microplate reader and the data were exported. • h) IC50 was calculated using GraphPad Prism 7.0 software.
(§4) The IC50 (half-maximal inhibitory concentration) of the compound was obtained using the following nonlinear fitting formula: Y = Bottom + (Top−Bottom)/(1+10^(∧)((LogIC50−X)*HillSlope)) [formula] • X: Log value of the compound concentration • Y: Inhibition rate (% inhibition) • Top: Maximum response • Bottom: Baseline response • HillSlope: Slope of the curve
(§5) The formula for calculating cell inhibition rate (inhibition rate %) was: [formula]

[7] = molecular target: T5, Ba/F3 BCR-ABL1 E255V/T315I (Homo sapiens, UniProt P00519+P11274, E255V/T315I); assay: Cell growth inhibitory activity assay (CellTiter-Glo), Ba/F3 BCR-ABL1 E255V/T315I cells; settings: 72 h, CTG cell viability
T5 construct: BCR (N-terminal fusion partner of the oncoprotein); expressed in transfected cells; host or cells: Ba/F3 (lentiviral transduction, monoclonal line)
Description: as §2, §3, §4, §5

[8] = molecular target: T6, Ba/F3 BCR-ABL1 A424T (Homo sapiens, UniProt P00519+P11274, A424T); assay: Cell growth inhibitory activity assay (CellTiter-Glo), Ba/F3 BCR-ABL1 A424T cells; settings: 72 h, CTG cell viability
T6 construct: BCR (N-terminal fusion partner of the oncoprotein); expressed in transfected cells; host or cells: Ba/F3 (lentiviral transduction, monoclonal line)
Description: as §2, §3, §4, §5

[9] = molecular target: T7, Ba/F3 BCR-ABL1 A337V (Homo sapiens, UniProt P00519+P11274, A337V); assay: Cell growth inhibitory activity assay (CellTiter-Glo), Ba/F3 BCR-ABL1 A337V cells; settings: 72 h, CTG cell viability
T7 construct: BCR (N-terminal fusion partner of the oncoprotein); expressed in transfected cells; host or cells: Ba/F3 (lentiviral transduction, monoclonal line)
Description: as §2, §3, §4, §5

[10] = molecular target: T8, Ba/F3 BCR-ABL1 P465S (Homo sapiens, UniProt P00519+P11274, P465S); assay: Cell growth inhibitory activity assay (CellTiter-Glo), Ba/F3 BCR-ABL1 P465S cells; settings: 72 h, CTG cell viability
T8 construct: BCR (N-terminal fusion partner of the oncoprotein); expressed in transfected cells; host or cells: Ba/F3 (lentiviral transduction, monoclonal line)
Description: as §2, §3, §4, §5

[11] = molecular target: T9, Ba/F3 BCR-ABL1 V468F (Homo sapiens, UniProt P00519+P11274, V468F); assay: Cell growth inhibitory activity assay (CellTiter-Glo), Ba/F3 BCR-ABL1 V468F cells; settings: 72 h, CTG cell viability
T9 construct: BCR (N-terminal fusion partner of the oncoprotein); expressed in transfected cells; host or cells: Ba/F3 (lentiviral transduction, monoclonal line)
Description: as §2, §3, §4, §5

[12] = molecular target: T10, Ba/F3 BCR-ABL1 I502L (Homo sapiens, UniProt P00519+P11274, I502L); assay: Cell growth inhibitory activity assay (CellTiter-Glo), Ba/F3 BCR-ABL1 I502L cells; settings: 72 h, CTG cell viability
T10 construct: BCR (N-terminal fusion partner of the oncoprotein); expressed in transfected cells; host or cells: Ba/F3 (lentiviral transduction, monoclonal line)
Description: as §2, §3, §4, §5

SMILES | IC50 [1] | IC50 [2] | IC50 [3] | IC50 [4] | IC50 [5] | IC50 [6] | IC50 [7] | IC50 [8] | IC50 [9] | IC50 [10] | IC50 [11] | IC50 [12]
C[C@@H]1COCc2nc3cc(C(=O)Nc4ccc(OC(F)(F)Cl)cc4)cc(-c4cnc5c(c4)-c4n[nH]cc4C5)c3n21 [T-3, (R)-N-(4-(chlorodifluoromethoxy)phenyl)-6-(2,4-dihydropyrazolo[3',4':3,4]cyclopenta[1,2-b]pyridin-7-yl)-4-methyl-3,4-dihydro-1H-benzo[4,5]imidazo[2,1-c][1,4]oxazine-8-carboxamide] | ≤ 5 nM | ≤ 5 nM | ≤ 5 nM | 50 to 1000 nM | > 1000 nM | ≤ 5 nM | ≤ 5 nM | 5 to 50 nM | 5 to 50 nM | 5 to 50 nM | 5 to 50 nM | 5 to 50 nM
C[C@@H]1COCc2nc3cc(C(=O)Nc4ccc(OC(F)(F)Cl)cc4)cc(-c4cnc5c(c4)-c4nn(-c6cnccn6)cc4C5)c3n21 [T-71, (R)-N-(4-(chlorodifluoromethoxy)phenyl)-4-methyl-6-(2-(pyrazin-2-yl)-2,4-dihydropyrazolo[3',4':3,4]cyclopenta[1,2-b]pyridin-7-yl)-3,4-dihydro-1H-benzo[4,5]imidazo[2,1-c][1,4]oxazine-8-carboxamide] | ≤ 5 nM | ≤ 5 nM | ≤ 5 nM | 5 to 50 nM | > 1000 nM | ≤ 5 nM | ≤ 5 nM | 5 to 50 nM | 50 to 1000 nM | 50 to 1000 nM | 50 to 1000 nM | 5 to 50 nM
C[C@@H]1COCc2nc3cc(C(=O)Nc4ccc(OC(F)(F)Cl)cc4)cc(-c4cnc5c(c4)-c4nn(S(C)(=O)=O)cc4C5)c3n21 [T-42, (R)-N-(4-(chlorodifluoromethoxy)phenyl)-4-methyl-6-(2-(methylsulfonyl)-2,4-dihydropyrazolo[3',4':3,4]cyclopenta[1,2-b]pyridin-7-yl)-3,4-dihydro-1H-benzo[4,5]imidazo[2,1-c][1,4]oxazine-8-carboxamide] | ≤ 5 nM | ≤ 5 nM | 5 to 50 nM | 50 to 1000 nM | > 1000 nM | 50 to 1000 nM | 50 to 1000 nM | 50 to 1000 nM | 50 to 1000 nM | 50 to 1000 nM | 50 to 1000 nM | 50 to 1000 nM
CCn1cc2c(n1)-c1cc(-c3cc(C(=O)Nc4ccc(OC(F)(F)Cl)cc4)cc4nc5n(c34)[C@H](C)COC5)cnc1C2 [T-18, (R)-N-(4-(chlorodifluoromethoxy)phenyl)-6-(2-ethyl-2,4-dihydropyrazolo[3',4':3,4]cyclopenta[1,2-b]pyridin-7-yl)-4-methyl-3,4-dihydro-1H-benzo[4,5]imidazo[2,1-c][1,4]oxazine-8-carboxamide] | ≤ 5 nM | ≤ 5 nM | ≤ 5 nM | > 1000 nM | > 1000 nM | ≤ 5 nM | ≤ 5 nM | 5 to 50 nM | 5 to 50 nM | 5 to 50 nM | 5 to 50 nM | 5 to 50 nM
C[C@@H]1COCc2nc3cc(C(=O)Nc4ccc(OC(F)(F)Cl)cc4)cc(-c4cnc5c(c4)-c4nn(-c6ncccn6)cc4C5)c3n21 [T-65] | ≤ 5 nM | ≤ 5 nM | ≤ 5 nM | ≤ 5 nM | > 1000 nM | ≤ 5 nM | ≤ 5 nM | ≤ 5 nM | ≤ 5 nM | 5 to 50 nM | 5 to 50 nM | ≤ 5 nM
C[C@@H]1COCc2nc3cc(C(=O)Nc4ccc(OC(F)(F)Cl)cc4)cc(-c4cnc5c(c4)-c4nn(-c6cncnc6)cc4C5)c3n21 [T-66, (R)-N-(4-(chlorodifluoromethoxy)phenyl)-4-methyl-6-(2-(pyrimidin-5-yl)-2,4-dihydropyrazolo[3',4':3,4]cyclopenta[1,2-b]pyridin-7-yl)-3,4-dihydro-1H-benzo[4,5]imidazo[2,1-c][1,4]oxazine-8-carboxamide] | ≤ 5 nM | ≤ 5 nM | 5 to 50 nM | > 1000 nM | > 1000 nM | 50 to 1000 nM | 50 to 1000 nM | 5 to 50 nM | 50 to 1000 nM | 50 to 1000 nM | 50 to 1000 nM | 50 to 1000 nM
C[C@@H]1COCc2nc3cc(C(=O)Nc4ccc(OC(F)(F)Cl)cc4)cc(-c4cnc5c(c4)-c4c(cnn4-c4nccc(C#N)n4)C5)c3n21 [T-69-A, (R)-N-(4-(chlorodifluoromethoxy)phenyl)-6-(1-(4-cyanopyrimidin-2-yl)-1,4-dihydropyrazolo[3',4':3,4]cyclopenta[1,2-b]pyridin-7-yl)-4-methyl-3,4-dihydro-1H-benzo[4,5]imidazo[2,1-c][1,4]oxazine-8-carboxamide] | ≤ 5 nM | ≤ 5 nM | 5 to 50 nM | 50 to 1000 nM | > 1000 nM | 5 to 50 nM | 5 to 50 nM | 50 to 1000 nM | 50 to 1000 nM | 50 to 1000 nM | > 1000 nM | 50 to 1000 nM
C[C@@H]1COCc2nc3cc(C(=O)Nc4ccc(OC(F)(F)Cl)cc4)cc(-c4cnc5c(c4)-c4nn(CC(F)(F)F)cc4C5)c3n21 [T-49, (R)-N-(4-(chlorodifluoromethoxy)phenyl)-4-methyl-6-(2-(2,2,2-trifluoroethyl)-2,4-dihydropyrazolo[3',4':3,4]cyclopenta[1,2-b]pyridin-7-yl)-3,4-dihydro-1H-benzo[4,5]imidazo[2,1-c][1,4]oxazine-8-carboxamide] | ≤ 5 nM | ≤ 5 nM | ≤ 5 nM | 50 to 1000 nM | > 1000 nM | ≤ 5 nM | ≤ 5 nM | ≤ 5 nM | 5 to 50 nM | 5 to 50 nM | 5 to 50 nM | 5 to 50 nM
[2H]C([2H])([2H])N1Cc2ncc(-c3cc(C(=O)Nc4ccc(OC(F)(F)Cl)cc4)cc4nc5n(c34)[C@H](C)COC5)cc2C1=O [T-31, (R)-N-(4-(chlorodifluoromethoxy)phenyl)-4-methyl-6-(6-(methyl-d3)-5-oxo-6,7-dihydro-5H-pyrrolo[3,4-b]pyridin-3-yl)-3,4-dihydro-1H-benzo[4,5]imidazo[2,1-c][1,4]oxazine-8-carboxamide] | ≤ 5 nM | ≤ 5 nM | 5 to 50 nM | 5 to 50 nM | > 1000 nM | 5 to 50 nM | 5 to 50 nM | 5 to 50 nM | 50 to 1000 nM | 50 to 1000 nM | 5 to 50 nM | 50 to 1000 nM
